Measurements as given in patent publication US20250228832A1, “METHODS FOR TREATING DISORDERS AMELIORATED BY MUSCARINIC RECEPTOR ACTIVATION” (KARUNA THERAPEUTICS, INC., priority 2022, published 2025).
Read-outs that look alike come from different tables or passages of the source.

Experiments:
human M4 receptor = target: T1, human M4 receptor (Homo sapiens, UniProt P08173); experiment: SPA GTP (GTPgS) binding curve shift assay, M4; type: biochemical
T1 construct: expressed in transfected cells
T1 sequence (P08173 1-479): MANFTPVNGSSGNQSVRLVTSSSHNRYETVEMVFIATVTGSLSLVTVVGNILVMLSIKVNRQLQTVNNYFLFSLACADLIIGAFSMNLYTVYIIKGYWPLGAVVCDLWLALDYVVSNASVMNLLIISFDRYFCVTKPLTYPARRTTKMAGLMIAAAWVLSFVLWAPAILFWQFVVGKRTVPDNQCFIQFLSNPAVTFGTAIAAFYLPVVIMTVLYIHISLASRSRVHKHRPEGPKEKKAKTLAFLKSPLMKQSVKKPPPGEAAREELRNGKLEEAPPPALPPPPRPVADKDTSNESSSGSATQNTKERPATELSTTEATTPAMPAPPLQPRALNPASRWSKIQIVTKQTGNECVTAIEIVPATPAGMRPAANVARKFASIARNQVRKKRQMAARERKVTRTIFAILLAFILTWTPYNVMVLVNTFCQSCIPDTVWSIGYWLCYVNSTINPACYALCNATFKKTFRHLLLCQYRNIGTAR
Protocol: Membranes were prepared for GTPgS binding assays from CHO-K1 cells stably expressing human M2 or human M4 receptors. Cells were grown in 5-layer cell culture flasks. Cells were washed with 50 mL of PBS and then dissociated with 0.05% trypsin. Dissociated cells were then collected by centrifugation at 650×g for 8 min at 4° C. Pellets were rewashed in PBS by centrifugation and resuspended in 30 mL of 20 mM HEPES, 10 mM EDTA, pH 7.4. After sitting on ice for 30 min, membranes were collected by centrifugation at 50000×g for 15 min at 4° C., resuspended in 30 mL of 20 mM HEPES, 0.1 mM EDTA, pH 7.4, and collected again by centrifugation. Pellets were then washed twice by centrifugation in 30 mL of 20 mM HEPES, pH 7.4, and stored at −80° C. until the day of the assay. On the day of the assay, pellets were thawed on ice and resuspended in 1 mL of 20 mM HEPES, pH 7.4, 10 mM MgCl2, and 100 mM NaCl using Dounce homogenization.
According to Promega guidelines, membrane protein concentration was determined by BCA protein assay (Promega, Madison, WI).
On the day of the assay, serial dilutions of test PAM compounds were brought up in assay buffer (20 mM HEPES, 10 mM MgCl2; see Table 4 for NaCl concentrations) at four times the final assay concentration. […] of membrane homogenates (containing […] of membrane protein) were prepared in assay buffer supplemented with GDP at 4× final assay concentration (see Table 4 for GDP concentrations) and dispensed into 96 well polypropylene, U-bottom Greiner plates. Membrane plates were incubated for 10 min at room temperature with gentle shaking. Then, 25 μL of test compounds were added to assay plates. Plates were then incubated, with shaking, for an additional 10-15 min. Then, 25 μL of diluted agonists serially diluted in assay buffer at 4× final assay concentration was added to assay plates. Plates were then incubated, with shaking, for an additional 10-15 min. Next, […] of 0.4 nM ^35S-GTP (Perkin Elmer, Waltham, MA) in assay buffer was added to assay mixtures. The binding reaction was left on the shaker for 1 h at room temperature. Membranes in assay reactions were then transferred to GF/C filter plates (UniFilter, Perkin Elmer) and washed three times using FilterMate Harvester (Perkin Elmer) with cold assay buffer containing no GDP. Filter plates were then dried at 40° C. overnight, and […] of Beta Plate Scintillation liquid was added. Plates were top and bottom sealed before being read on the TopCount scintillation counter (Perkin Elmer, Waltham, MA).
(§1) Raw data for all assays was transmitted directly from plate readers into the Beacon database for processing. All assay plates contained positive and negative control wells for data normalization and scaling. […] All control wells contained DMSO at a final assay concentration that matched the test compound wells.
For GTPgS assays, the negative control wells were defined as 0% response. The highest response in a plate was scaled to 1, representing 100% response. Data from test compound wells was scaled to these controls and are reported as % control values. This was done to allow for subsequent GraphPad cooperativity analysis, setting the maximal response at no more than 1.

human M5 receptor = target: T2, human M5 receptor (Homo sapiens, UniProt P08912); experiment: HTRF IP-One curve shift assay, M5; type: cell-based; details: M5
T2 construct: expressed in transfected cells
T2 sequence (P08912 1-532): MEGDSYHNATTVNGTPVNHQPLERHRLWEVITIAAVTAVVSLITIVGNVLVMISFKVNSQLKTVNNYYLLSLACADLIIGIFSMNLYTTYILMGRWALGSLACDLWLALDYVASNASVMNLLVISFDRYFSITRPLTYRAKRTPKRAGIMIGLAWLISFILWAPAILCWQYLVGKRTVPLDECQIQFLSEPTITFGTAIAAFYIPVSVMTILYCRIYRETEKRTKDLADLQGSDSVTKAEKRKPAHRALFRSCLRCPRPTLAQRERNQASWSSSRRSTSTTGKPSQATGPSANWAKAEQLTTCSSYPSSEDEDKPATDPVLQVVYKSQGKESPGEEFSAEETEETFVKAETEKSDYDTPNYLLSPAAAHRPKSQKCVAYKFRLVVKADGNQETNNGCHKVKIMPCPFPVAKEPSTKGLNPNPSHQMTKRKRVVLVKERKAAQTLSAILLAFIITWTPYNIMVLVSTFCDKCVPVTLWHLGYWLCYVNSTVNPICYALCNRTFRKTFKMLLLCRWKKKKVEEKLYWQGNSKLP
Protocol: HTRF IP-One assays were performed using frozen cell aliquots prepared from CHO-K1 cell lines stably expressing human M1, M3, or M5 receptors. Cells were frozen following typical cell freezing protocols. […] Dissociated cells were quenched in full media and collected by centrifugation at 290×g for 5 min. […] 1 mL aliquots of cells were dispensed into cryovial tubes and frozen in a controlled rate cryo-freezer container at −80° C. Cells were stored at −80° C. (or in liquid nitrogen if stored for at least six months) until the day of the assay.
On the day before the assay, frozen cells were rapidly thawed in a 37° C. water bath, brought up in 20 mL of full media, and collected via centrifugation at 290×g for 5 min. […] Next, […] of cells (10,000 cells/well) were dispensed into 384-well coming plates in triplicate. Cells were incubated overnight in a 37° C., 5% CO2 cell incubator.
Then, 2 μL of test compounds were added to the cells and incubated for 10 min at 37° C. in a 5% CO2 cell incubator. Next, 2 μL of diluted agonists serially diluted in assay buffer at 7× final assay concentration was added to assay plates. Finally, assay plates were incubated for two hours at 37° C. in a 5% CO2 cell incubator.
Six μL of IP-1 detection reagents (IP-One Gq HTRF kit, Cisbio Cat #62IPAPEJ) were dispensed to the cells. First, the plates were incubated for two hours at room temperature (IP-One detection reagents were made according to Cisbio protocol). Then, plates were read on an Envision plate reader following the Cisbio guidelines.
as §1
Counts from the standard curve wells were used to generate a sigmoidal standard curve, which was used to transform the raw counts from each well on the plate (scaling control wells and compound wells) into a pmol/well IP1 value.

Emax (human M4 receptor; MK-4710 concentration 0 nM): 67.6%
Emax at […] (human M4 receptor; MK-4710 concentration […]): 76.8%
Emax (human M5 receptor; Emraclidine concentration 41.2 nM, read-out: Emax): 77.7%
Emax at […] (human M5 receptor; Emraclidine concentration […], read-out: Emax): 72.3%
Emax (human M5 receptor; MK-4710 concentration 0 nM): 71.2%
Emax (human M5 receptor; MK-4710 concentration 1110 nM, read-out: Emax): 78.1%
Emax (human M5 receptor; MK-4710 concentration 3330 nM, read-out: Emax): 78.8%
Emax at […] (human M5 receptor; MK-4710 concentration […], read-out: Emax): 77.7%
SMILES: CC(=O)OCC[N+](C)(C)C [acetylcholine, reference compound]
